Measurements: patent publication US8530181B2, “Method of screening for compounds which affect the cleavage of EphA7 byγ-secretase” (Eisai R&D Management Co., Ltd., priority 2007, dated 2013)

Target: T1, γ-secretase (Homo sapiens, UniProt P49768)
T1 construct: 293/EBNA-1 cell strain (Invitrogen) was cultured in 10% FBS (Hyclone)/DMEM (Invitrogen); host or cells: 293/EBNA-1 (HEK293) cells; only the substrate rat EphA7-HA was transfected
Assay: Analysis of EphA7 processing in EphA7-transfected 293/EBNA-1 cell strain (Western blotting with anti-HA antibody)
Format: cell-based
Parameters: dose or concentration left out as unconfirmed
Settings: HEK293 (293/EBNA-1) cells expressing rat EphA7-HA; Compound E added to culture broth, cultured one day; compared with cells without Compound E
Description: Whether or not EphA7 is a substrate for γ-secretase was evaluated using HEK293 cells expressing a gene encoding EphA7 with an HA tag added to its C-terminus, in the presence of a γ-secretase inhibitor. As the γ-secretase inhibitor, (2S)-2-{[(3,5-difluorophenyl)acetyl]amino}-N-[(3S)-1-methyl-2-oxo-5-phenyl-2,3-dihydro-1H-1,4-benzodiazepin-3-yl]propanamide (hereinafter, sometimes referred to as “Compound E”) (Alexis Biochemicals) was used.
293/EBNA-1 cell strain (Invitrogen) was cultured in 10% FBS (Hyclone)/DMEM (Invitrogen) under 5% CO2 at 37° C., followed by transfection thereinto of the gene encoding rat EphA7 with an HA tag added to its C-terminus using Lipofectamine 2000 (Invitrogen). After one day culture under the same conditions, […] Compound E (γ-secretase inhibitor; Alexis Biochemicals) was added to the culture broth. Cells were cultured for another day under the same conditions. Then, the transfected HEK293 cells were collected with PBS (Sigma) and sonicated with a sonicator (Taitec VP-5S) to disrupt cells. Then, the quantity of protein was determined with Protein Assay Kit (BioRad). […]
First, the substrate for γ-secretase is cut off its extracellular domain by other protease. […] Since reactions proceed very quickly from the first cleavage to the final degradation by proteasome, the substrate is […] when detected by Western blotting.

SMILES: C[C@H](NC(=O)Cc1cc(F)cc(F)c1)C(=O)N[C@H]1N=C(c2ccccc2)c2ccccc2N(C)C1=O [Compound E, (2S)-2-{[(3,5-difluorophenyl)acetyl]amino}-N-[(3S)-1-methyl-2-oxo-5-phenyl-2,3-dihydro-1H-1,4-benzodiazepin-3-yl]propanamide]
- Accumulation of EphA7 C-terminal fragment (CTF, band around 50 kDa) on Western blot, indicating inhibited cleavage of EphA7 by γ-secretase: CTF was accumulated
